Assay results from patent publication US10357036B2, “Compounds for controlling arthropods” (priority 2015, dated 2019).

Legend:
Boophilus microplus = Boophilus microplus injection test; assay type: in vivo; conditions: 20 μg/animal; assessed after 7 days
Method: (§1) • Solvent: dimethyl sulfoxide
1 μl of the active ingredient solution is injected into the abdomen of 5 engorged adult female cattle ticks (Boophilus microplus). The animals are transferred into dishes and kept in a climate-controlled room.

Spodoptera frugiperda = Spodoptera frugiperda spray test; assay type: in vivo; conditions: 100 g/ha; after 7 days
Ctenocephalides felis = Ctenocephalides felis oral test; assay type: in vivo; conditions: 100 ppm in citrated cattle blood; after 2 days
Method: • Solvent: Dimethyl Sulfoxide
To produce a suitable active ingredient formulation, 10 mg of active ingredient are mixed with 0.5 ml of dimethyl sulfoxide. Dilution with citrated cattle blood gives the desired concentration.
About 20 unfed adult cat fleas (Ctenocephalides fells) are placed into a chamber which is closed at the top and bottom with gauze. A metal cylinder whose bottom end is closed with parafilm is placed onto the chamber. The cylinder contains the blood/active ingredient formulation, which can be imbibed by the fleas through the parafilm membrane.

Tetranychus urticae = Tetranychus urticae spray test, OP-resistant (bean leaf discs); assay type: in vivo; conditions: 100 g/ha; after 6 days
Method: After 6 days, the efficacy in % is determined.

Phaedon cochleariae = Phaedon cochleariae spray test; conditions: 100 g/ha; after 7 days
Musca domestica = Musca domestica test; assay type: in vivo; conditions: 100 ppm; adult houseflies; after 2 days
Method: as §1
To produce a suitable active ingredient formulation, 10 mg of active ingredient are mixed with 0.5 ml of dimethyl sulfoxide, and the concentrate is diluted with water to the desired concentration.
Vessels containing a sponge treated with sugar solution and the active ingredient formulation of the desired concentration are populated with 10 adult houseflies (Musca domestica).

Rhipicephalus sanguineus = Rhipicephalus sanguineus in vitro contact test with adult brown dog ticks; assay type: in vivo; conditions: application rate 5 μg/cm^2 (=500 g/ha); after 48 h; dead or moribund ticks
Method: For the coating of the test tubes, 9 mg of active ingredient are first dissolved in 1 ml of acetone p.a. and then diluted to the desired concentration with acetone p.a. 250 μl of the solution are distributed homogeneously on the inner walls and the base of a 25 ml glass tube by turning and rocking on an orbital shaker (rocking rotation at 30 rpm for 2 h). With 900 ppm of active ingredient solution and internal surface area 44.7 cm^2, given homogeneous distribution, an area-based dose of 5 μg/cm^2 is achieved.
After the solvent has evaporated off, the tubes are populated with 5-10 adult dog ticks (Rhipicephalus sanguineus), sealed with a perforated plastic lid and incubated in a horizontal position in the dark at room temperature and ambient humidity. After 48 h, efficacy is determined. To this end, the ticks are knocked to the base of the tube and incubated on a hotplate at 45-50° C. for not more than 5 min. Ticks which remain motionless on the base or move in such an uncoordinated manner that they are unable to deliberately avoid the heat by climbing upwards are considered to be dead or moribund.
An efficacy of 100% means that all the ticks were dead or moribund. 0% efficacy means that none of the ticks were harmed.

SMILES | efficacy (laying of fertile eggs) (Boophilus microplus) [%] | efficacy (Spodoptera frugiperda) [%] | efficacy (rate of extermination) (Ctenocephalides felis) [%] | efficacy (Tetranychus urticae) [%] | efficacy (Phaedon cochleariae) [%] | efficacy (rate of extermination) (Musca domestica) [%] | efficacy (Rhipicephalus sanguineus) [%]
CCC(=O)NCc1cc(-c2cnn(-c3c(Cl)cc(C(F)(C(F)(F)F)C(F)(F)F)cc3Cl)c2)ccc1C(F)(F)F [Ia-72] | 100 | 100 | 100 | 100 | 100 | 100 | –
CC(=O)NCc1cccc(-c2cnn(-c3c(Cl)cc(C(F)(C(F)(F)F)C(F)(F)F)cc3C(F)(F)F)c2)c1F [Ia-151] | 100 | 100 | 100 | – | 100 | 100 | –
O=C(CC(F)(F)F)NCc1cc(-c2cnn(-c3c(Cl)cc(C(F)(C(F)(F)F)C(F)(F)F)cc3Cl)c2)ccc1Cl [Ia-35] | 100 | 100 | 100 | – | – | 100 | –
CCC(=O)NCc1cc(-c2cnn(-c3c(Cl)cc(C(F)(C(F)(F)F)C(F)(F)F)cc3OC(F)(F)F)c2)cnc1Cl [Ia-133] | 100 | 100 | 100 | – | 100 | 100 | –
CCC(=O)NCc1c(F)ccc(-c2cnn(-c3c(Cl)cc(C(F)(C(F)(F)F)C(F)(F)F)cc3Cl)c2)c1F [Ia-148] | 100 | 100 | 100 | – | 100 | 100 | –
CC(=O)NCc1cc(-c2cnn(-c3c(Cl)cc(C(F)(C(F)(F)F)C(F)(F)F)cc3Cl)c2)ccc1C(F)(F)F [Ia-74] | 100 | 100 | 100 | 100 | 100 | 100 | –
CC(C)CC(=O)NCc1cc(-c2cnn(-c3c(Cl)cc(C(F)(C(F)(F)F)C(F)(F)F)cc3C(F)F)c2)ccc1F [Ia-61] | 100 | 100 | 100 | 70 | – | 80 | –
CCC(=O)NC1CCc2ccc(-c3cnn(-c4c(Cl)cc(C(F)(C(F)(F)F)C(F)(F)F)cc4C(F)(F)F)c3)cc21 (centres unmarked) [I-Tc-02] | 100 | 100 | 100 | – | – | – | 80
CN(Cc1cc(-c2cnn(-c3c(Cl)cc(C(F)(C(F)(F)F)C(F)(F)F)cc3Cl)c2)ccc1Cl)S(C)(=O)=O [Ic-04] | – | 100 | 100 | 100 | 100 | 100 | –
O=C(NCc1cc(-c2cnn(-c3c(Cl)cc(C(F)(C(F)(F)F)C(F)(F)F)cc3Cl)c2)cnc1Cl)C1CC1 [Ia-18] | 100 | 100 | 100 | – | 100 | 100 | –
CCCCC(=O)NCc1cc(-c2cnn(-c3c(Cl)cc(C(F)(C(F)(F)F)C(F)(F)F)cc3C(F)F)c2)ccc1F [Ia-59] | 100 | 100 | 100 | 100 | 100 | 100 | –
CCC(=O)NCc1cccc(-c2cnn(-c3c(Cl)cc(C(F)(C(F)(F)F)C(F)(F)F)cc3C(F)(F)F)c2)c1F [Ia-150] | 100 | 100 | 100 | 90 | 100 | 100 | –
CCC(=O)NCc1cc(-c2cnn(-c3c(Cl)cc(C(F)(C(F)(F)F)C(F)(F)F)cc3Cl)c2)cnc1Cl [Ia-132] | 100 | 100 | 100 | – | 100 | 100 | –
CCC(=O)NCc1cc(-c2cnn(-c3c(Cl)cc(C4(C(F)(F)F)CC4)cc3Cl)c2)ccc1Cl [Ia-128] | – | 100 | 100 | – | 100 | 100 | –
CSc1cc(C(F)(C(F)(F)F)C(F)(F)F)cc(Cl)c1-n1cc(-c2ccc(F)c(CNC(=O)C3CC3)c2)cn1 [Ia-12] | 100 | 83 | 100 | 100 | 100 | 100 | –
O=C(NCc1cccc(-c2cnn(-c3c(Cl)cc(C(F)(C(F)(F)F)C(F)(F)F)cc3Cl)c2)c1)C1CC1 [Ia-41] | 100 | – | 100 | – | 100 | 100 | –
CC(=O)NCc1cc(-c2cnn(-c3c(Cl)cc(S(=O)(=O)C(F)(F)F)cc3Cl)c2)ccc1Cl [Ia-88] | 100 | 83 | 100 | 100 | 100 | – | –
CC(=O)NCc1cccc(-c2cnn(-c3c(Cl)cc(C(F)(C(F)(F)F)C(F)(F)F)cc3C(F)F)c2)c1F [Ia-144] | 100 | 100 | 100 | 90 | 100 | 100 | –
CS(=O)(=O)NCc1cc(-c2cnn(-c3c(Cl)cc(C(F)(C(F)(F)F)C(F)(F)F)cc3Cl)c2)ccc1Cl [Ic-01] | 100 | 100 | 100 | 100 | 100 | 90 | –
CC(=O)N(C)Cc1cc(-c2cnn(-c3c(Cl)cc(C(F)(C(F)(F)F)C(F)(F)F)cc3Cl)c2)ccc1C(F)(F)F [Ia-77] | 100 | 100 | 100 | – | 100 | – | –
CC(=O)NCc1cccc(-c2cnn(-c3c(Cl)cc(C(F)(C(F)(F)F)C(F)(F)F)cc3C(F)F)c2)c1 [Ia-02] | 100 | 100 | 100 | 100 | 100 | 100 | –
N#Cc1cc(C(F)(C(F)(F)F)C(F)(F)F)cc(Cl)c1-n1cc(-c2cccc(CNC(=O)C3CC3)c2)cn1 [Ia-98] | 100 | – | 100 | 90 | 100 | 90 | –
CCC(=O)NCc1cccc(-c2cnn(-c3c(Cl)cc(C(F)(C(F)(F)F)C(F)(F)F)cc3C(F)F)c2)c1 [Ia-39] | – | 100 | – | 100 | 100 | – | –
